Experimental data: PMC11317440, “Soloxolone para-methylanilide effectively suppresses aggressive phenotype of glioblastoma cells including TGF-β1-induced glial-mesenchymal transition in vitro and inhibits growth of U87 glioblastoma xenografts in mice” (Frontiers in Pharmacology, 2024)

Tests used:
[1] = test system: TGF-β1-induced U87 cells; assay: Cell morphology (cell size) of TGF-β1-induced U87 cells; type: cell-based, human; details: TGF-β1 50 ng/mL, non-toxic concentrations, 48 h
Description: After seeding at a concentration of 5,000 cells/well in triplicate in 96-well plates and incubating overnight, U87 and U118 cells were exposed to TGF-β1 (50 ng/mL) and non-toxic concentrations of soloxolone amides for 48 h. An EVOS XL Core microscope with an integrated CMOS camera (Thermo Fisher Scientific, USA) was then used to examine cell morphology at ×20 magnification. Aspect ratio (AR) and area were quantified for at least 150 cells in each experimental group using ImageJ software (NIH, USA).

[2] = test system: U87 cells; assay: Annexin V-FITC/propidium iodide flow cytometry, U87, 48 h; type: cell-based, human
Description: To observe apoptosis and necrosis, U87 and U118 cells were stained with Annexin V-FITC and propidium iodide (ab14085; Abcam, Inc., Cambridge, MA, USA) after 48 h of incubation with compound 7 (0–2000 nM) according to the manufacturer’s protocol (n = 3). To quantify the total proportion of apoptotic cells in control and experimental groups, the events accumulated in the lower right quadrant (early apoptosis) and upper right quadrant (late apoptosis) were summarized.
After staining, 10,000 cells per sample were analyzed on a NovoCyte flow cytometer using NovoExpress software (ACEA Biosciences, Inc., USA).

[3] = test system: EPNT-5 cells; assay: MTT assay 72 h, 7 and TMZ alone and combined, synergy (HSA), EPNT-5; type: cell-based, mouse
Description: The drug synergy score was calculated for the dose-response matrix according to the highest single-agent (HSA) model using the SynergyFinder + web application (https://www.synergyfinder.org/).

[4] = test system: U87 cells; assay: Colony formation assay, U87 cells; type: cell-based, human; details: 10 days
Description: U87, U118 and EPNT-5 cells were seeded at a density of 200 cells/well in 96-well plates and treated with increasing concentrations of compound 7 (0–1,000 nM) dissolved in 10% FBS-containing DMEM (n = 5). On day 10, colonies were fixed with 4% formaldehyde and stained with crystal violet dye (0.1% w/v). Images were captured using the iBright 1,500 Imaging System (Invitrogen, USA) and the area of colonies with a minimum diameter of 100 µm was calculated using ImageJ. In the case of overlapping colonies, their total area was calculated. Finally, the area of the formed cell colonies was summed and normalized to the total colony area in the control.

[5] = test system: TGF-β1-treated U118 cells; assay: Adhesion of U118 cells to culture plastic (TrypLE treatment, MTT); type: cell-based, human; details: TGF-β1 50 ng/mL, 7 50 nM, 48 h
Description: Adhesiveness of glioblastoma cells was assessed by two independent methods. First, cell adhesion to culture plastic was tested using a trypsin treatment assay, as previously described ([Sava et al., 2004]; [Mazuryk et al., 2015]; [van Dijk et al., 2017]). Briefly, U87 and U118 cells (10,000 cells per well of a 96-well plate, n = 4) were cultured with TGF-β1 (50 ng/mL) and non-toxic concentrations of soloxolone amides for 48 h and then treated with a 1:20 dilution of TrypLE Express (Gibco, USA) in PBS for 3 min at 37°C. Non-adherent cells were then removed by a triple PBS wash, and the remaining adherent cells were fixed with 4% formaldehyde and stained with crystal violet dye (0.1% w/v). Images were captured using the iBright 1,500 Imaging System (Invitrogen, USA), and the cell-occupied area was calculated using ImageJ. Alternatively, the number of adherent cells was quantified using the MTT assay.

[6] = test system: U87 primary tumorspheres; assay: Primary tumorsphere growth, U87; type: cell-based, human
Description: (§1) For evaluation of spheroid growth, the bottom of the 96-well plate was covered with 1% agarose for non-adherent conditions. U87 cells (5,000 cells/well) were then seeded and allowed to form spheroids for 24 h, after which increasing concentrations of compound 7 (0–1,000 nM) were added (n = 8). Every other day of the 10-day experiment, fresh medium supplemented with compound 7 was added to half of the medium, and the spheroids were photographed using a camera-equipped ZEISS Primo Vert microscope (Carl Zeiss Microscopy GmbH, Jena, Germany). To assess the formation of secondary tumorspheres, cells were dissociated from primary tumorspheres after 4 days of compound 7 stimulation using TrypLE Express and were then seeded into agarose-coated 96-well plates (n = 8). On day 3, the resulting secondary spheroids were examined microscopically. Primary and secondary spheroid areas were quantified using ImageJ.

[7] = test system: U118 glioblastoma cells; assay: MTT cell viability assay, U118 cells, 48 h; type: cell-based; details: Homo sapiens
Description: Cells were seeded in quadruplicate in 96-well plates at 10,000 cells/well and allowed to adhere overnight. The medium was then replaced with serum-free DMEM containing increasing concentrations of soloxolone amides for 48 h. After incubation, 3-(4,5-dimethylthiazol-2-yl)-2,5-diphenyltetrazolium bromide (MTT dye) was added at a final concentration of 0.5 mg/mL and left for 2 h. The resulting formazan crystals were dissolved in DMSO and the optical density was measured at 570 nm using a Multiscan RC plate reader (Thermo LabSystems, Helsinki, Finland).

[8] = test system: U87 secondary tumorspheres; assay: Secondary tumorsphere formation, U87; type: cell-based, human
Description: as §1

[9] = test system: N-cadherin, fibronectin, Slug, OLIG2 expression in TGF-β1-induced U87 cells; assay: qRT-PCR of GMT markers in U87 cells; type: cell-based, human; details: 48 h
Description: Total RNA was extracted using TRIzol Reagent (Ambion, Austin, TX, USA) according to the manufacturer’s protocol. Subsequently, the first strand cDNA was synthesized from 4 μg of total RNA using an oligo (dT)18 primers and M-MuLV-RH revertase (Biolabmix, Novosibirsk, Russia). Finally, RT-qPCR was performed using specific primers (Table 1) and BioMaster SYBR Blue reagent kit (Biolabmix, Novosibirsk, Russia). Relative expression was determined by normalization to the housekeeping gene HPRT using the 2^−ΔΔCT method (Livak and Schmittgen 2001).

[10] = U87 primary tumorspheres, 7 1,000 nM

Cc1ccc(NC(=O)[C@@]2(C)CC[C@]3(C)CC[C@]4(C)[C@H](C(=O)C=C5[C@@]6(C)C=C(C#N)C(=O)C(C)(C)C6CC[C@]54C)[C@@H]3C2)cc1 (stereo partly shown) [compound 7, N-p-tolyl-2-cyano-3,12-dioxo-18βH-olean-9(11),1(2)-dien-30-amide]
effect on size/morphology of TGF-β1-induced U87 cells [1]: restored their morphological characteristics to the control cells
percentage of cells in the right quadrants (apoptosis) ([2]; U87, 7 450 nM): 3.7%
necrosis (upper left quadrant) ([2]; U87, 7 1,000 nM): 23.4%
percentage of cells in the right quadrants (apoptosis) ([2]; U87, 7 1,000 nM): 40%
necrosis (upper left quadrant) ([2]; U87, 7 2000 nM): 14.8%
percentage of cells in the right quadrants (apoptosis) ([2]; U87, 7 2000 nM): 83.3%
effect of 7 on TMZ cytotoxicity in EPNT-5 cells ([3]; 7 at 50 nM): antagonistic effect
IC50 ([3]; Mus musculus, MTT): 199 nM
inhibition at 0.05 µM ([4]; Homo sapiens, U-87 MG, 240 h, U87, 7 50 nM): 48.7%
inhibition at 0.1 µM ([4]; Homo sapiens, U-87 MG, 240 h, U87, 7 100 nM): 74.2%
colony area ([4]; U87, 7 50 nM): 51.3%
colony area ([4]; U87, 7 1,000 nM): 3.9%
TGF-β1-induced decrease in U118 cell adhesion to culture plastic [5]: effectively reversed
increase of spheroid growth compared to control ([6]; U87 primary tumorspheres, 7 50 nM, p-value <0.05): 21%
increase of spheroid growth compared to control ([6]; U87 primary tumorspheres, 7 100 nM, not statistically significant): 10.4%
spheroid growth ([6]; U87 primary tumorspheres, 7 450 nM): stopping it after 4 days
reduction of tumorsphere size compared to control by day 10 [6, 10]: 28.6%
spheroid growth [6, 10]: completely blocking it
concentration causing a large-scale reduction of spheroids ([6]; U87 tumorspheres): 1 µM
IC50 [7]: 310 nM
increase of secondary tumorsphere area ([8]; U87, 7 50 nM for 4 days, p-value <0.01): 22.6%
increase of secondary tumorsphere area ([8]; U87, 7 100 nM for 4 days, not statistically significant): 6.6%
decrease of secondary tumorsphere area ([8]; U87, 7 450 nM for 4 days): 23.9%
decrease of secondary tumorsphere area ([8]; U87, 7 1,000 nM for 4 days): 84.1%
upregulation of OLIG2 ([9]; TGF-β1-induced U87 cells, 7 50 nM): 2 fold
reduction of N-cadherin expression compared to TGF-β1-stimulated cells ([9]; U87, 7 50 nM, TGF-β1 50 ng/mL): 67.6%
reduction of Slug expression compared to TGF-β1-stimulated cells ([9]; U87, 7 50 nM, TGF-β1 50 ng/mL): 35.8%
reduction of fibronectin expression compared to TGF-β1-stimulated cells ([9]; U87, 7 50 nM, TGF-β1 50 ng/mL): 39.2%
